The subject of data set [1] is KB-VIN multidrug-resistant human cancer cell line. Description: In vitro cytotoxicity. The class given is cell-based.
Data set [2] relates to P-388 murine leukemia cells. The note with it: in vitro; cited from earlier work.
Data set [3] has as its system KB nasopharyngeal human cancer cell line. Description: In vitro cytotoxicity. The class given is cell-based. Particulars: KB cells (value in parentheses).

For `COc1cc([C@@H]2c3cc4c(cc3[C@@H](O[C@@H]3O[C@@H]5CO[C@@H](C)O[C@H]5[C@H](O)[C@H]3O)[C@H]3COC(=O)[C@H]23)OCO4)cc(OC)c1O` [etoposide, reference compound], the “activity in KB-VIN relative to KB (cross-resistance)” value in data set [1] (KB-VIN versus KB) is listed as “at least eight-fold less active”. As for `C=C(CC[C@@H](C)[C@H]1CC[C@H]2C3=C(C(=O)C[C@]12C)[C@@]1(C)CCC(=O)[C@@H](C)[C@@H]1C[C@@H]3O)C(C)C(=O)OC` (stereo partly drawn) [Compound 6, methyl 7β-hydroxy-3,11-dioxo-4α-methylergosta-8,24(28)-dien-26-oate], the “substrate of P-glycoprotein (P-gp)” value in data set [1] (inferred from lack of cross-resistance shown by KB-VIN) is “not substrates of P-glycoprotein”.

Turning to `C=C(CC[C@@H](C)[C@H]1CC[C@@]2(O)C3=C(C(=O)C[C@]12C)[C@@]1(C)CCC(=O)[C@@H](C)C1C[C@@H]3O)C(C)C(=O)O` (stereo partly drawn) [Compound 4, 7β,14α-dihydroxy-3,11-dioxo-4α-methylergosta-8,24(28)-dien-26-oic acid], the “substrate of P-glycoprotein (P-gp)” value in data set [1] (not told) is listed as “not substrates of P-glycoprotein”. On to `C=C(CC[C@@H](C)[C@H]1CC[C@H]2C3=C(C(=O)C[C@]12C)[C@@]1(C)CCC(=O)[C@@H](C)[C@@H]1CC3=O)C(C)C(=O)O` (stereo partly shown) [Compound 11, zhankuic acid A], for which the “cytotoxicity against P-388 murine leukemia cells” value in data set [2] is “significant cytotoxicity”. One may read the % inhibition as how much of the control response was suppressed. On to eburicol [Compound 19], for which, in data set [3], the “% inhibition at 20 μM, KB” value was found to be 34%. Moreover, the “% inhibition at 20 μM, KB-VIN” value in data set [1] (20 μM, KB-VIN cells (value in parentheses)) is 18%.

`C=C(CC[C@@H](C)[C@H]1CC[C@H]2C3=C(C(=O)[C@H](O)[C@]12C)[C@@]1(C)CC[C@@H](O)[C@@H](C)[C@@H]1CC3=O)C(C)C(=O)O` (stereo partly shown) [Compound 13, zhankuic acid C]: the “cytotoxicity against P-388 murine leukemia cells” value in data set [2] is on record as “significant cytotoxicity”.

These data come from paper PMC2993773 (Journal of natural products, 2010).
